What was measured:
MDA-MB-231 (breast) = assay: In vitro cytotoxic activity (MTT) assay, MDA-MB-231; assay type: cell-based; conditions: Homo sapiens; MDA-MB-231 cells, exposed for 96 hours; read-out: IC50, 50% inhibition of cell proliferation, MDA-MB-231 (breast)
Protocol: (§1) Compounds 1-16 were screened for their in vitro cytotoxic activity utilizing a 3-(4,5-dimethyl-thiazol-2-yl)-2,5-diphenyltetrazolium bromide (MTT) assay against selected cancer human cell lines consisting of PC3 (prostate), HCT116 (colon), A375 (melanoma), H1299 (lung), MIAPaCa-2 (pancreas), HL60 (leukemia), MCF7 (breast), MDA-MB-231 (breast) (T. Mosmann, J. Immunol. Meth., 1983, 65, 55-63). The cells were cultured at 37° C. in RMPI1640 medium supplemented with 10% fetal bovine serum, 50 IU/mL penicillin, and 50 μg/mL streptomycin in a 5% CO2 incubator. All cells were sub-cultured 3 times/week by trypsinisation. Viable cells were seeded and allowed to adhere for 12 h before a test drug was added in 96-well plates at an initial density of 1.0×10^5 cells/mL. Tumour cell lines were separately exposed to various concentrations of the tested compounds followed by incubation at a temperature of 37° C. during 96 h inside a medium of fresh RMPI 1640. Cells were subsequently incubated at 37° C. using MTT at 0.5 mg/mL during 4 h. After removal of supernatant, formazan crystals were dissolved in isopropanol and the optical density was measured at 570 nm. CX-4945 was used as a positive control.

A375 (melanoma) = assay: In vitro cytotoxic activity (MTT) assay, A375; assay type: cell-based; conditions: Homo sapiens, A-375; A375 cells, exposed for 96 hours; read-out: IC50, 50% inhibition of cell proliferation, A375 (melanoma)
Protocol: as §1

[1] = biological target: T1, recombinant human CK2 (RRββ-holoenzyme) (Homo sapiens, UniProt P68400); assay: CK2 Kinase Assay (radiometric, [γ-33P]ATP); assay type: biochemical; conditions: final ATP concentration 15 μM, 10 min at 30° C.; read-out: protein kinase CK2 IC50
T1 construct: purchased Millipore
T1 sequence (P68400 whole entry): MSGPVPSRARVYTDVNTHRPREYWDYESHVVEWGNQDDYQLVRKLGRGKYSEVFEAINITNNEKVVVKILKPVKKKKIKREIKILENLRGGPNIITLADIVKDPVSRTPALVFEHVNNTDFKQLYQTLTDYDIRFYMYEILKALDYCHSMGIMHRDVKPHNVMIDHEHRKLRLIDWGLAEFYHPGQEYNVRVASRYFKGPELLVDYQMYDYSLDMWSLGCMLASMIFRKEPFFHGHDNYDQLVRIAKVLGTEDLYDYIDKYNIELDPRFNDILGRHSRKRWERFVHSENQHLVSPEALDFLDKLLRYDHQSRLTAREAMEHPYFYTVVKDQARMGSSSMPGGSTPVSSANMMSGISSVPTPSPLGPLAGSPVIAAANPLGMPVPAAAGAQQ
T1 sequence (P67870 whole entry partner): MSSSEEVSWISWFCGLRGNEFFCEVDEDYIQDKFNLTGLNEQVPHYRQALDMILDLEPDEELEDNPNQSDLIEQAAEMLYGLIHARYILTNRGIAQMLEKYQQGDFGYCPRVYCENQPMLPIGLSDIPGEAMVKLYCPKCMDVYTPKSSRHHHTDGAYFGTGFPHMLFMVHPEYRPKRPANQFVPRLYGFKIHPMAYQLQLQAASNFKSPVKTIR
Protocol: CK2 Kinase Assay was conducted using the protocol as described in Pierre F. et al; J. Med. Chem. 2011, 54, 635-654. The tested compounds in aqueous solution were added at a volume of 10 μL to a reaction mixture comprising 10 μL of assay dilution buffer (ADB; 20 mM MOPS, pH 7.2, 25 mM β-glycerol phosphate, 5 mM EGTA, 1 mM sodium orthovanadate, and 1 mM dithiothreitol), 10 μL of substrate peptide (RRRDDDSDDD, dissolved in ADB at a concentration of 1 mM), 10 μL of recombinant human CK2 (RRββ-holoenzyme, 25 ng dissolved in ADB; Millipore). Reactions were initiated by the addition of 10 μL of ATP solution (90% 75 mMMgCl2, 75 μM ATP (final ATP concentration: 15 μM) dissolved in ADB; 10% [γ-33P] ATP (stock 1 mCi/100 μL; 3000 Ci/mmol (Perkin-Elmer) and maintained for 10 min at 30° C. The reactions were quenched with 100 μL of 0.75% phosphoric acid and then transferred to and filtered through a phosphor cellulose filter plate (Millipore). After washing each well five times with 0.75% phosphoric acid, the plate was dried under vacuum for 5 min and, following the addition of 15 μL of scintillation fluid to each well, the residual radioactivity was measured using a Wallac luminescence counter. The ICso values were derived from eight concentrations of test inhibitors.

HL60 (leukemia) = assay: In vitro cytotoxic activity (MTT) assay, HL60; assay type: cell-based; conditions: Homo sapiens, HL-60; HL60 cells, exposed for 96 hours; read-out: IC50, 50% inhibition of cell proliferation, HL60 (leukemia)
Protocol: as §1

H1299 (lung) = assay: In vitro cytotoxic activity (MTT) assay, H1299; assay type: cell-based; conditions: Homo sapiens, NCI-H1299; H1299 cells, exposed for 96 hours; read-out: IC50, 50% inhibition of cell proliferation, H1299 (lung)
Protocol: as §1

MCF7 (breast) = assay: In vitro cytotoxic activity (MTT) assay, MCF7; assay type: cell-based; conditions: Homo sapiens; MCF7 cells, exposed for 96 hours; read-out: IC50, 50% inhibition of cell proliferation, MCF7 (breast)
Protocol: as §1

MIAPaCa-2 (pancreas) = assay: In vitro cytotoxic activity (MTT) assay, MIAPaCa-2; assay type: cell-based; conditions: Homo sapiens, MIA PaCa-2; MIAPaCa-2 cells, exposed for 96 hours; read-out: IC50, 50% inhibition of cell proliferation, MIAPaCa-2 (pancreas)
Protocol: as §1

PC3 (prostate) = assay: In vitro cytotoxic activity (MTT) assay, PC3; assay type: cell-based; conditions: Homo sapiens, PC-3; PC3 cells, exposed for 96 hours; read-out: IC50, 50% inhibition of cell proliferation, PC3 (prostate)
Protocol: as §1

HCT116 (colon) = assay: In vitro cytotoxic activity (MTT) assay, HCT116; assay type: cell-based; conditions: Homo sapiens, HCT-116; HCT116 cells, exposed for 96 hours; read-out: IC50, 50% inhibition of cell proliferation, HCT116 (colon)
Protocol: as §1

O=C(O)c1cc2nc(Nc3cccc(Cl)c3)c3cnccc3c2[nH]1 [Compound 1, 5-((3-chlorophenyl)amino)-1H-pyrrolo[3,2-c][2,7]naphthyridine-2-carboxylic Acid]
IC50 (MDA-MB-231 (breast)): 3.3 µM
IC50 (A375 (melanoma)): 2500 nM
IC50 [1]: 35 nM
IC50 (HL60 (leukemia)): 2600 nM
IC50 (H1299 (lung)): 1200 nM
IC50 (MCF7 (breast)): 3.9 µM
IC50 (MIAPaCa-2 (pancreas)): 1100 nM
IC50 (PC3 (prostate)): 2100 nM
IC50 (HCT116 (colon)): 1300 nM

Source: patent US11891377B1, “Pyrrolo[3,2-c][2,7]naphthyridine-2-carboxylic acid compounds as CK2 inhibitors” (KING FAISAL UNIVERSITY, priority 2023, dated 2024)
